Measured values reported in patent EP3634580B1, “COMPOSITIONS COMPRISING LACTULOSE FOR MAINTAINING OR IMPROVING GUT HEALTH IN HUMANS” (Fresenius Kabi Austria GmbH, priority 2017, dated 2018).

Assays:
[1] = test system: colon microbiota of human origin; test: TNO Intestinal Model (TIM-2), in vitro model of the proximal colon: sodium hydroxide consumption; type: cell-based; conditions: for Cumulative sodium hydroxide consumption: mean of n = 2
Procedure: (§1) Crystalline lactulose was administered daily for 5 days to the TNO Intestinal Model (TIM-2), an in vitro model of the proximal colon. NaOH consumption, short-chain fatty acids (SCFA) production, ammonia production as well as relative abundance of microbiota were analyzed.
(§2) The substance administered in this study was lactulose crystals (S.C.M. Società Chimica Mugello S.r.l., Vicchio, Italy). Experiments without the addition of lactulose served as negative control.
(§3) The TNO Intestinal Model (TIM-2) is a dynamic in vitro model of the proximal colon. The TIM-2 system was inoculated with a highly metabolically active colon microbiota of human origin. In the system the following standardized conditions were simulated: body temperature; pH in the lumen of the proximal colon (pH 5.8); delivery of a substrate from the 'ileum' (SIEM; Standardized Ileum Efflux Medium); mixing and transport of the intestinal contents; anaerobiosis; absorption of water and absorption of fermentation products, metabolites and other low molecular weight compounds (via a semipermeable membrane inside the colon model).
(§4) SIEM simulates material passing the ileocecal valve in humans. It contained the major non-digestible carbohydrates (pectin, xylan, arabinogalactan, amylopectin, starch) found in a normal western diet as well as protein (bactopepton, casein), ox-bile, Tween 80 as well as vitamins and minerals. SIEM was added to the system at a speed of 2.5 mL/h and the speed of the dialysis liquid was 1.5 mL/min. During the experiment, the intestinal contents were mixed continuously by the peristaltic movements of the TIM-2 system. In order to simulate the transit of the chime from proximal to distal colon, 25 mL of the lumen was removed every 24 h and discarded.
(§5) Before performing each experiment, the system was inoculated with a standardized microbiota of human origin. This standardized microbiota was prepared using fecal donations from a group of 4 healthy volunteers (3 females, 1 male, age 38.8 ± 3.9 years; BMI (body mass index) 24.2 ± 1.5 kg/m^2). Individuals provided signed informed consent before participation, were non-smokers and had not used antibiotics, prebiotics, probiotics or laxatives within 1 month before the stool donation.
(§6) At the start of the adaptation period the microbiota was allowed to adapt to the model conditions and SIEM for 16 h. After the adaptation period the 120 h test period started in which lactulose was added to TIM-2 once daily.
(§7) Lactulose was added to the system at daily doses of 2 g, 3 g, 4 g, and 5 g lactulose. Each dose as well as the control experiment was studied in duplicate (n = 2). The test period of the TIM-2 experiments lasted 120 h (5 consecutive days).
The pH was kept at a value of 5.8 by automatic titration with 2 M NaOH, the consumption of NaOH was monitored.

[2] = test system: colon microbiota of human origin; test: TIM-2 in vitro model of the proximal colon: short-chain fatty acids (SCFA) production; type: cell-based; conditions: for Cumulative production of butyrate / Cumulative production of total short chain fatty acids (SCFA): mean of n = 2
Procedure: as §1, §2, §3, §4, §5, §6, §7
Metabolites like the short-chain fatty acids (SCFA) and ammonia produced in TIM-2 were continuously removed from the lumen by a semipermeable membrane unit. This dialysate was collected at the start of the test period and after 24, 48, 72, 96, and 120 h.
The lumen and dialysate fractions of TIM-2 were analyzed using gas chromatography for SCFA (acetate, propionate and butyrate). Dialysate samples were directly used. Lumen samples were centrifuged (12,000 rpm at 4 °C for 10 min).

[3] = daily doses of 2 g, 3 g, 4 g, 5 g, 120 h test period, versus control
[4] = lactulose 2 g daily, 0 h (values at the start set to zero), control 0
[5] = lactulose 3 g daily, 0 h (values at the start set to zero), control 0

## OC[C@H]1O[C@@H](O[C@@H]2[C@@H](CO)OC(O)(CO)[C@H]2O)[C@H](O)[C@@H](O)[C@H]1O (mixture of isomers) [Lactulose, lactulose]
[1]; [3]
  use of NaOH (in words): dose dependent increased use of NaOH
[1]; lactulose 2 g daily, 0 h, control 19
  Cumulative sodium hydroxide consumption: 19 mL
[1]; lactulose 2 g daily, 24 h, control 48
  Cumulative sodium hydroxide consumption: 58 mL
[1]; lactulose 2 g daily, 48 h, control 71
  Cumulative sodium hydroxide consumption: 89 mL
[1]; lactulose 2 g daily, 72 h, control 90
  Cumulative sodium hydroxide consumption: 115 mL
[1]; lactulose 2 g daily, 96 h, control 107
  Cumulative sodium hydroxide consumption: 139 mL
[1]; lactulose 2 g daily, 120 h, control 125
  Cumulative sodium hydroxide consumption: 162 mL
[1]; lactulose 3 g daily, 0 h, control 19
  Cumulative sodium hydroxide consumption: 20 mL
[1]; lactulose 3 g daily, 24 h, control 48
  Cumulative sodium hydroxide consumption: 65 mL
[1]; lactulose 3 g daily, 48 h, control 71
  Cumulative sodium hydroxide consumption: 105 mL
[1]; lactulose 3 g daily, 72 h, control 90
  Cumulative sodium hydroxide consumption: 136 mL
[1]; lactulose 3 g daily, 96 h, control 107
  Cumulative sodium hydroxide consumption: 169 mL
[1]; lactulose 3 g daily, 120 h, control 125
  Cumulative sodium hydroxide consumption: 202 mL
[1]; lactulose 4 g daily, 0 h, control 19
  Cumulative sodium hydroxide consumption: 20 mL
[1]; lactulose 4 g daily, 24 h, control 48
  Cumulative sodium hydroxide consumption: 72 mL
[1]; lactulose 4 g daily, 48 h, control 71
  Cumulative sodium hydroxide consumption: 113 mL
[1]; lactulose 4 g daily, 72 h, control 90
  Cumulative sodium hydroxide consumption: 151 mL
[1]; lactulose 4 g daily, 96 h, control 107
  Cumulative sodium hydroxide consumption: 185 mL
[1]; lactulose 4 g daily, 120 h, control 125
  Cumulative sodium hydroxide consumption: 223 mL
[1]; lactulose 5 g daily, 0 h, control 19
  Cumulative sodium hydroxide consumption: 18 mL
[1]; lactulose 5 g daily, 24 h, control 48
  Cumulative sodium hydroxide consumption: 69 mL
[1]; lactulose 5 g daily, 48 h, control 71
  Cumulative sodium hydroxide consumption: 117 mL
[1]; lactulose 5 g daily, 72 h, control 90
  Cumulative sodium hydroxide consumption: 157 mL
[1]; lactulose 5 g daily, 96 h, control 107
  Cumulative sodium hydroxide consumption: 193 mL
[1]; lactulose 5 g daily, 120 h, control 125
  Cumulative sodium hydroxide consumption: 223 mL
[2]; [3]
  SCFA production (in words): increased the levels
  levels of butyrate (in words): increased the levels
[2]; daily doses of 2 g, 3 g, 4 g, 5 g, 120 h test period, versus control, listed as lactulose
  SCFA production (in words): higher SCFA production as compared to the control
[2]; [4]
  Cumulative production of butyrate: 0 mmol
  Cumulative production of total short chain fatty acids (SCFA): 0 mmol
[2]; lactulose 2 g daily, 24 h, control 7
  Cumulative production of butyrate: 14 mmol
[2]; lactulose 2 g daily, 24 h, control 62
  Cumulative production of total short chain fatty acids (SCFA): 85 mmol
[2]; lactulose 2 g daily, 48 h, control 18
  Cumulative production of butyrate: 27 mmol
[2]; lactulose 2 g daily, 48 h, control 129
  Cumulative production of total short chain fatty acids (SCFA): 163 mmol
[2]; lactulose 2 g daily, 72 h, control 31
  Cumulative production of butyrate: 39 mmol
[2]; lactulose 2 g daily, 72 h, control 194
  Cumulative production of total short chain fatty acids (SCFA): 234 mmol
[2]; lactulose 2 g daily, 96 h, control 44
  Cumulative production of butyrate: 52 mmol
[2]; lactulose 2 g daily, 96 h, control 257
  Cumulative production of total short chain fatty acids (SCFA): 318 mmol
[2]; lactulose 2 g daily, 120 h, control 58
  Cumulative production of butyrate: 69 mmol
[2]; lactulose 2 g daily, 120 h, control 320
  Cumulative production of total short chain fatty acids (SCFA): 403 mmol
[2]; [5]
  Cumulative production of butyrate: 0 mmol
  Cumulative production of total short chain fatty acids (SCFA): 0 mmol
[2]; lactulose 3 g daily, 24 h, control 7
  Cumulative production of butyrate: 12 mmol
